# Results reported in US8022091B2, “Triazole derivative” (Taisho Pharmaceutical Co., Ltd., priority 2006, dated 2011).
# Biological target: T1, human Edg-1 (S1P1) (Homo sapiens, UniProt P21453)
# T1 construct: expressed in transfected cells; host or cells: HEK-293
# Experiment: S1P1 binding assay: inhibition of [33P]-S1P binding to membrane fraction of HEK-293 cells transferred with the human Edg-1 (S1P1) gene
# Conditions: [33P]-S1P 0.1 nM, human Edg-1 (S1P1) HEK-293 membrane fraction, 1 h at 30° C.; read-out: IC50 (concentration at which binding in the absence of the test compound was inhibited by 50%)
# Outline: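 Membranes from S1P1-transfected HEK-293 cells incubated 1 h at 30° C in pH 7.4 Tris buffer with fatty acid-free BSA, 0.1 nM [33P]-S1P and test compound (0.1% DMSO). Filter-bound radioactivity was counted; inhibition corrected for binding to untransfected-cell membranes, and IC50 derived from concentration series.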
# T1 sequence (P21453 whole entry): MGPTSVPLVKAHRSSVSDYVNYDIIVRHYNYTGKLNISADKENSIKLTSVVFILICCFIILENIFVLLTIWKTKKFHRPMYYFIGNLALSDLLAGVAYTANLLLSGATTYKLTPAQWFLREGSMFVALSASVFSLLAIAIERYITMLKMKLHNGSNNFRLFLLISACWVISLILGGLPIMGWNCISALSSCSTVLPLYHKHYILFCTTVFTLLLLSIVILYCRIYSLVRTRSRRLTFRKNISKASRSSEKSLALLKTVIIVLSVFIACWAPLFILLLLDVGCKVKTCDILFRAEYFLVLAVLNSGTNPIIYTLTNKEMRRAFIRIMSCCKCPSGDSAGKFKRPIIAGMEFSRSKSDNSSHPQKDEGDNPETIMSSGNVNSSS
row,Structure (SMILES),IC50
1,"CCn1c(Nc2ccc(C)cc2)nnc1[C@@H](C)NS(=O)(=O)c1ccc(Cl)c(Cl)c1 [Compound 61, N-[(1R)-1-(4-Ethyl-5(4-methylphenylamino)-4H-[1,2,4]triazol-3-yl)ethyl]3,4-dichlorobenzenesulfonamide]",39 nM
2,CCn1c(Oc2cccc(N(CCOC)CCOC)c2)nnc1[C@@H](C)NS(=O)(=O)c1ccc(Cl)c(Cl)c1 [Compound 100],18.5 nM

# Continued, values first:
row,IC50,Structure (SMILES)
1,2.3 nM,CCn1c(Oc2cccc(N3CCN(C(C)=O)CC3)c2)nnc1[C@@H](C)NS(=O)(=O)c1ccc2c(Cl)cccc2c1 [Compound 698]
2,10.2 nM,CCn1c(Oc2cccc(N3CCN(C)CC3)c2)nnc1[C@@H](C)NS(=O)(=O)c1ccc2c(c1)CCC2 [Compound 678]

# Same assay, conditions: test compound 10 μM; inhibition of [33P]-S1P binding, membrane fraction
row,Structure (SMILES),inhibition at 10 µM
1,CCc1ccc(S(=O)(=O)N[C@H](C)c2nnc(Oc3cccc(N4CCN(C)CC4)c3)n2CC)cc1 [Compound 515],109%
2,CCn1c(Oc2ccc3cc[nH]c3c2)nnc1[C@@H](C)NS(=O)(=O)c1cc(Cl)ccc1OC [Compound 425],90.1%
3,CCn1c(Oc2cccc(N3CCN(C)CC3)c2)nnc1[C@@H](C)NS(=O)(=O)c1ccccc1C(F)(F)F [Compound 546],55.8%
4,CCn1c(Oc2cccc(N3CCN(C)CC3)c2)nnc1[C@@H](C)NS(=O)(=O)c1c(C)cc(C)cc1C [Compound 517],69.6%
5,CCn1c(Oc2ccc3cc[nH]c3c2)nnc1[C@@H](C)NS(=O)(=O)c1cc(F)c(Cl)cc1F [Compound 415],91.5%
6,CCn1c(Oc2cccc(N3CCN(C)CC3)c2)nnc1[C@@H](C)NS(=O)(=O)c1ccc(C(C)(C)C)cc1 [Compound 500],90.2%
7,CCn1c(Oc2cccc(N3CCN(C)CC3)c2)nnc1[C@@H](C)NS(=O)(=O)CCc1cccc2ccccc12 [Compound 523],114%
8,CCn1c(Oc2cccc(N3CCN(C)CC3)c2)nnc1[C@@H](C)NS(=O)(=O)c1c(C)nn(C)c1Cl [Compound 540],64.3%
9,CCn1c(Oc2ccc3cc[nH]c3c2)nnc1[C@@H](C)CS(=O)(=O)c1ccc(F)c2ccccc12 [Compound 478],87%
10,CCn1c(Oc2cccc(N3CCN(C)CC3)c2)nnc1[C@@H](C)NS(=O)(=O)c1ccc(Br)cc1 [Compound 499],109%
11,CCn1c(Oc2cccc(N3CCN(C)CC3)c2)nnc1[C@@H](C)NS(=O)(=O)c1cccc2ccccc12 [Compound 522],98.4%
12,CCn1c(Oc2ccc3cc[nH]c3c2)nnc1[C@@H](C)NS(=O)(=O)c1cccc(F)c1 [Compound 423],87.8%
13,CCn1c(Oc2cccc(N3CCN(C)CC3)c2)nnc1[C@@H](C)NS(=O)(=O)c1ccccc1 [Compound 498],84%
14,CCn1c(Oc2ccc3cc[nH]c3c2)nnc1[C@@H](C)NS(=O)(=O)c1c(F)c(Br)cc(F)c1Br [Compound 420],61%
15,CCn1c(Oc2ccc3cc[nH]c3c2)nnc1[C@@H](C)NS(=O)(=O)c1cc(Cl)c(F)cc1F [Compound 417],90.8%
16,CCn1c(Oc2cccc(N3CCN(C)CC3)c2)nnc1[C@@H](C)NS(=O)(=O)c1ccc(Cl)c2nonc12 [Compound 507],84.8%
17,CCn1c(Oc2ccc3cc[nH]c3c2)nnc1[C@@H](C)NS(=O)(=O)c1ccc(C)c(F)c1 [Compound 444],100%

# Next, values leading:
row,inhibition at 10 µM,Structure (SMILES)
1,77.4%,CCn1c(Oc2cccc(N3CCN(C)CC3)c2)nnc1[C@@H](C)NS(=O)(=O)c1ccc(F)cc1Cl [Compound 570]
2,87.9%,CCn1c(Oc2cccc(N3CCN(C)CC3)c2)nnc1[C@@H](C)NS(=O)(=O)Cc1ccc(Cl)c(Cl)c1 [Compound 586]
3,93.3%,CCn1c(Oc2cccc(N3CCN(C)CC3)c2)nnc1[C@@H](C)NS(=O)(=O)c1cc(C)ccc1OC [Compound 562]
4,114%,CCn1c(Oc2cccc(N3CCN(C)CC3)c2)nnc1[C@@H](C)NS(=O)(=O)c1ccc(C)c(C)c1 [Compound 619]
5,63.9%,CCn1c(Oc2cccc(N3CCN(C)CC3)c2)nnc1[C@@H](C)NS(=O)(=O)c1cc(C(F)(F)F)ccc1Br [Compound 611]
6,64.8%,CCn1c(Oc2cccc(N3CCN(C)CC3)c2)nnc1[C@@H](C)NS(=O)(=O)c1c(C)cc(OC)c(C)c1C [Compound 558]
7,95.2%,CCn1c(Oc2cccc(N3CCN(C)CC3)c2)nnc1[C@@H](C)NS(=O)(=O)c1sc(C)nc1C [Compound 631]
8,95.4%,CCn1c(Oc2cccc(N3CCN(C)CC3)c2)nnc1[C@@H](C)NS(=O)(=O)c1cccc(Cl)c1F [Compound 621]
9,55.7%,CCn1c(Oc2cccc(N3CCN(C)CC3)c2)nnc1[C@@H](C)NS(=O)(=O)c1ccccc1F [Compound 571]
10,80.1%,"CCn1c(Oc2ccc(F)cc2)nnc1C(NS(=O)(=O)c1ccc(Cl)c(Cl)c1)C(F)(F)F (stereo not drawn) [Compound 687, 3,4-Dichloro-N-[1-[4-ethyl-5-(4-fluorophenoxy)-4H-[1,2,4]triazol-3-yl]-2,2,2-trifluoroethyl]-benzenesulfonamide]"
11,71.1%,CCn1c(Oc2cccc(N3CCN(C)CC3)c2)nnc1[C@@H](C)NS(=O)(=O)c1ccc(F)cc1F [Compound 568]
12,60.8%,CCn1c(Oc2cccc(N3CCN(C)CC3)c2)nnc1[C@@H](C)NS(=O)(=O)c1ccc2c(c1)CCN2C(C)=O [Compound 677]
13,86.9%,CCc1cc(Br)ccc1S(=O)(=O)N[C@H](C)c1nnc(Oc2cccc(N3CCN(C)CC3)c2)n1CC [Compound 574]
14,76.1%,CCn1c(Oc2cccc(N3CCN(C)CC3)c2)nnc1[C@@H](C)NS(=O)(=O)c1c(C)cccc1Cl [Compound 551]
15,107%,CCn1c(Oc2cccc(N3CCN(C)CC3)c2)nnc1[C@@H](C)NS(=O)(=O)c1cc(F)c(Br)cc1F [Compound 557]
16,97.4%,CCn1c(Oc2cccc(N3CCN(C)CC3)c2)nnc1[C@@H](C)NS(=O)(=O)c1ccc2c(c1)CCC2 [Compound 678]
17,108%,CCn1c(Oc2cccc(N3CCN(C)CC3)c2)nnc1[C@@H](C)NS(=O)(=O)c1ccc(F)c2ccccc12 [Compound 648]
18,61.1%,CCn1c(Oc2cccc(N3CCN(C)CC3)c2)nnc1[C@@H](C)NS(=O)(=O)c1ccccc1OC [Compound 626]

# Same assay, conditions: test compound at 10 μM; inhibition of [33P]-S1P binding to the membrane fraction of HEK-293 cells expressing human Edg-1 (S1P1)
row,inhibition at 10 µM,Structure (SMILES)
1,102%,"CCn1c(Nc2ccc(C)cc2)nnc1[C@@H](C)NS(=O)(=O)c1ccc(Cl)c(Cl)c1 [Compound 61, N-[(1R)-1-(4-Ethyl-5(4-methylphenylamino)-4H-[1,2,4]triazol-3-yl)ethyl]3,4-dichlorobenzenesulfonamide]"
2,74.7%,CCn1c(Oc2ccc(F)cc2)nnc1[C@@H](C)NS(=O)(=O)c1cc(Br)ccc1OC [Compound 218]
3,107%,CCn1c(Oc2ccc(F)cc2)nnc1[C@@H](C)NS(=O)(=O)c1cccc(C(F)(F)F)c1 [Compound 188]
4,89.2%,CCn1c(Oc2ccc3cc[nH]c3c2)nnc1[C@@H](C)NS(=O)(=O)c1ccc(F)cc1 [Compound 346]
5,96.9%,CCn1c(Oc2ccc(F)cc2)nnc1[C@@H](C)NS(=O)(=O)c1cccc(Br)c1 [Compound 160]
6,63.2%,CCn1c(Oc2ccc3cc[nH]c3c2)nnc1[C@@H](C)NS(=O)(=O)c1ccc2c(c1)CN(C(=O)C(F)(F)F)CC2 [Compound 366]
7,107%,CCn1c(Oc2ccc(F)cc2)nnc1[C@@H](C)NS(=O)(=O)c1ccc(Br)cc1 [Compound 156]
8,90.4%,CCc1ccc(S(=O)(=O)N[C@H](C)c2nnc(Oc3ccc4cc[nH]c4c3)n2CC)cc1 [Compound 345]
9,65.8%,CCn1c(Oc2ccc3cc[nH]c3c2)nnc1[C@@H](C)NS(=O)(=O)c1c(C)cc(OC)c(C)c1C [Compound 388]
10,65.9%,CCn1c(Oc2ccc3cc[nH]c3c2)nnc1[C@@H](C)NS(=O)(=O)c1cc(F)ccc1C [Compound 390]
11,107%,CCn1c(Oc2ccc(F)cc2)nnc1[C@@H](C)NS(=O)(=O)c1ccc2nsnc2c1 [Compound 292]
12,94.3%,CCn1c(Oc2ccc3cc[nH]c3c2)nnc1[C@@H](C)NS(=O)(=O)c1cc(C)ccc1C [Compound 367]
13,86.4%,CCn1c(Oc2ccc(F)cc2)nnc1[C@@H](C)NS(=O)(=O)c1c(C)cc(Cl)cc1Cl [Compound 255]
14,82.5%,CCn1c(Oc2ccc(F)cc2)nnc1[C@@H](C)NS(=O)(=O)c1cc(F)c(F)cc1Cl [Compound 240]
15,85.2%,CCn1c(Oc2ccc3cc[nH]c3c2)nnc1[C@@H](C)NS(=O)(=O)c1ccccc1 [Compound 328]
16,101%,CCn1c(Oc2ccc3cc[nH]c3c2)nnc1[C@@H](C)NS(=O)(=O)c1ccc(Br)cc1 [Compound 329]
17,105%,CCn1c(Oc2ccc(F)cc2)nnc1[C@@H](C)NS(=O)(=O)c1cc(C)c(Cl)cc1Cl [Compound 248]
18,110%,CCn1c(Oc2cccc(N(CCOC)CCOC)c2)nnc1[C@@H](C)NS(=O)(=O)c1ccc(Cl)c(Cl)c1 [Compound 100]
19,55.3%,CCn1c(Oc2ccc(F)cc2)nnc1[C@@H](C)NS(=O)(=O)c1ccc(S(C)(=O)=O)cc1 [Compound 177]
20,109%,CCn1c(Oc2ccc(F)cc2)nnc1[C@@H](C)NS(=O)(=O)c1ccc(I)cc1 [Compound 182]
21,97.3%,CCn1c(Oc2ccc(F)cc2)nnc1[C@@H](C)NS(=O)(=O)c1cc(Cl)c(Cl)cc1Cl [Compound 184]
22,87.1%,CCn1c(Oc2ccc(F)cc2)nnc1[C@@H](C)NS(=O)(=O)c1cc(F)cc(Cl)c1C [Compound 233]
23,50.6%,CCc1cc(Br)ccc1S(=O)(=O)N[C@H](C)c1nnc(Oc2ccc(F)cc2)n1CC [Compound 234]
24,83%,CCn1c(Oc2ccc(F)cc2)nnc1[C@@H](C)NS(=O)(=O)c1cccc2ccccc12 [Compound 179]
25,69.7%,CCn1c(Oc2ccc(F)cc2)nnc1[C@@H](C)NS(=O)(=O)c1cc(C(F)(F)F)cc(C(F)(F)F)c1 [Compound 212]
26,106%,CCn1c(Oc2ccc3cc[nH]c3c2)nnc1[C@@H](C)NS(=O)(=O)c1ccc(C(=O)OC)n1C [Compound 372]
27,82.6%,CCn1c(Oc2ccc(F)cc2)nnc1[C@@H](C)NS(=O)(=O)c1ccc(OC(F)F)cc1 [Compound 263]
